# Measurements published in patent US20090181948A1, “DIAMINE DERIVATIVE” (KYOWA HAKKO KOGYO CO., LTD., priority 2005, published 2009).
# Structures can show the parent of a compound that is named as a salt.
# Columns and labels:
# histamine H3 receptor [1] = target: T1, histamine H3 receptor (Rattus norvegicus, UniProt Q9QYN8); experiment: Histamine H3 receptor binding assay ([3H]-Nα-methylhistamine binding to rat striatum homogenate); conditions: 1 μmol/L test compound; [3H]-Nα-methylhistamine 1 nmol/L; striata of Sprague-Dawley male rats, 25° C., 1 hour; read-out: Inhibition ratio of [3H]-Nα-methylhistamine binding
# T1 construct: from tissue; host or cells: rat striatum (Sprague-Dawley, male, 6 weeks), membrane homogenate
# T1 sequence (Q9QYN8 whole entry): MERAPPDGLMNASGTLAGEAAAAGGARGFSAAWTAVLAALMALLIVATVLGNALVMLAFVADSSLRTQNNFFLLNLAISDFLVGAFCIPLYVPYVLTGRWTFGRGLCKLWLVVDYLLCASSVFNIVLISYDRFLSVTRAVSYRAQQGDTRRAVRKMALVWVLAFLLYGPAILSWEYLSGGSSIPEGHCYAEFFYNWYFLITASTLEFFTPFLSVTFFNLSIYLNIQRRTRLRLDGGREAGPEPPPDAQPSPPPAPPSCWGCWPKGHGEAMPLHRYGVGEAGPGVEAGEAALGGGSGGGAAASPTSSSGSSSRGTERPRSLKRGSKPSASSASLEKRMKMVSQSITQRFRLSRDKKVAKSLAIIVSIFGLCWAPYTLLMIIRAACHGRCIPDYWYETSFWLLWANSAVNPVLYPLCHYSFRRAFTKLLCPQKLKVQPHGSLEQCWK
# Procedure, shortened: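 Rat striatum membranes (20 μg protein) incubated with [3H]-Nα-methylhistamine 1 nmol/L in 50 mmol/L Tris/HCl pH 7.4, 5 mmol/L EDTA, 1 hour at 25° C; bound ligand by filtration and scintillation counting. Nonspecific binding defined with 10 μmol/L thioperamide; % inhibition reported at 1 μmol/L compound.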
# histamine H3 receptor [2] = target: T1, histamine H3 receptor; experiment: Inhibitory effect on histamine release suppressive action of histamine H3 receptor agonist (Nα-methylhistamine) in rat forebrain synaptosomes; assay type: biochemical; conditions: 1 μmol/L test compound and 1 μmol/L Nα-methylhistamine, potassium 30 mmol/L stimulation, read-out: Inhibition ratio of the [3H]-histamine release suppressive action of Nα-methylhistamine
# Experimental: To the forebrains of Sprague-Dawley male rats (6 to 8 weeks of age), a 30-fold volume of a 0.32 mol/L aqueous sucrose solution was added and the forebrains were homogenized. The resulting homogenate was centrifuged (1,000×g, 4° C., 10 min), and to the obtained supernatant, an equivalent volume of Krebs-Ringer solution [120 mmol/L sodium chloride, 0.8 mmol/L potassium chloride, 2.6 mmol/L calcium chloride, 0.67 mmol/L magnesium sulfate, 1.2 mmol/L potassium dihydrogen phosphate, 27.5 mmol/L sodium bicarbonate, 10 mmol/L glucose (pH 7.3)] was added, and the resulting mixture was centrifuged (10,000×g, 4° C., 15 min). To the obtained precipitate, a 15-fold volume of Krebs-Ringer solution was added to suspend the precipitate. Then, the concentration of protein in the resulting tissue homogenate (synaptosomes) was measured and used for a test.
# To the synaptosomes (300 μg in terms of protein amount) prepared by the above-described method, a [^3H]-histidine solution [final concentration: […] (740 kBq)/mL]: 6 μl of a 37 MBq/mL (specific activity: […]) solution] was added, and the total volume was adjusted to 300 μL with Krebs-Ringer solution. Then, the resulting mixture was incubated at 37° C. for 30 minutes and centrifuged (10,000×g, 25° C., 3 min). To the resulting precipitate (synaptosomes), 300 μL of Krebs-Ringer solution was added, and the mixture was incubated at 37° C. for 5 minutes and centrifuged (10,000×g, 25° C., 3 min). This procedure was repeated 5 times, whereby washing of synaptosomes was carried out. The resulting synaptosomes were suspended in 100 μL of Krebs-Ringer solution, and the resulting suspension was used for the following procedure.
# A test compound and N^α-methylhistamine were separately dissolved in Krebs-Ringer solution to give a concentration of 20 μmol/L (the resulting mixtures were referred to as a test compound solution and a N^α-methylhistamine solution, respectively). To 100 μL of the above-described suspended synaptosomes (300 μg in terms of protein amount), 140 μL of Krebs-Ringer solution was added. Then, 30 μL of the test compound solution and 30 μL of the N^α-methylhistamine solution were added thereto, and the resulting mixture was incubated at 37° C. for 2 minutes. Then, an equivalent volume of a stimulating solution [64 mmol/L sodium chloride, 56.8 mmol/L potassium chloride, 2.6 mmol/L calcium chloride, 0.67 mmol/L magnesium sulfate, 1.2 mmol/L potassium dihydrogen phosphate, 27.5 mmol/L sodium bicarbonate, 10 mmol/L glucose (pH 7.3)] (final potassium concentration: 30 mmol/L) was added, and the resulting mixture was incubated at 37° C. for 2 minutes to release [^3H]-histamine. The reaction mixture was centrifuged (10,000×g, 25° C., 3 min), and the obtained supernatant was passed through Amberlite CG-50 column (250 μL), and the non-adsorbed fractions were discarded. Then, 2 mL of 50 mmol/L [[…]]/hydrochloric acid (HCl) (pH 7.5) (Tris) was passed through the column 3 times, and 2 mL of distilled water, and 1.5 mL of a 0.2 mol/L aqueous sodium hydroxide solution were passed through the column in this order, and the eluted fractions were discarded. Then, 2 mL of a 0.2 mol/L aqueous sodium hydroxide solution was passed through the column, and the eluted fraction was recovered in a scintillation vial. Then, 8 mL of Ultimagold (Perkin Elmer) was added to the recovered eluted solution, and the radioactivity ([^3H]-histamine) was measured using a liquid scintillation counter. The inhibitory action of the test compound on the histamine release suppressive action of N^α-methylhistamine was evaluated by obtaining the inhibition ratio to the histamine release suppressive action in the presence of 1 μmol/L No-methylhistamine and 1 μmol/L of the test compound. The inhibition ratio of the [^3H]-histamine release suppressive action was calculated using the following Equation (2). […]
inhibition at 1 µM (histamine H3 receptor [1]),inhibition at 1 µM (histamine H3 receptor [2]),melting point,SMILES
≥ 80%,≥ 70%,,"CC1CCCN1CCN1CCN(CCN2CCCC2C)C1=C(C#N)C#N (stereo not drawn) [Compound 6, {1,3-Bis[2-(2-methylpyrrolidin-1-yl)ethyl]imidazolidin-2-ylidene}malononitrile]"
≥ 80%,≥ 70%,,"N#CC(C#N)=C1N(CCCCN2CCCCC2)CCN1CCN1CCCCC1 [Compound 7, [1-(4-Piperidinobutyl)-3-(2-piperidinoethyl)imidazolidin-2-ylidene]malononitrile]"
≥ 80%,≥ 70%,,"N#CC(C#N)=C1N(CCCN2CCCCC2)CCN1CCN1CCCCC1 [Compound 10, [1-(2-Piperidinoethyl)-3-(3-piperidinopropyl)imidazolidin-2-ylidene]malononitrile]"
≥ 80%,≥ 70%,69 to 71 °C,"CC1CCCN1CCCN1CCN(CCN2CCCC2C)C1=C(C#N)C#N (stereo not drawn) [Compound 11, {1-[2-(2-Methylpyrrolidin-1-yl)ethyl]-3-[3-(2-methylpyrrolidin-1-yl)propyl]imidazolidin-2-ylidene}malononitrile]"
≥ 80%,≥ 70%,,"N#CC(C#N)=C1N(CCCN2CCCCC2)CCN1CCN1CCCCCC1 [Compound 47, {1-[2-(Azepan-1-yl)ethyl]-3-(3-piperidinopropyl)imidazolidin-2-ylidene}malononitrile]"
≥ 80%,≥ 70%,,"C[C@@H]1CCC[C@H](C)N1CCN1CCN(CCCN2CCCCC2)C1=C(C#N)C#N [Compound 51, {1-[2-(Cis-2,6-dimethylpiperidino)ethyl]-3-(3-piperidinopropyl)imidazolidin-2-ylidene}malononitrile]"
≥ 80%,≥ 70%,70 to 72 °C,"C[C@H]1CCCN1CCCN1CCN(CCN2CCC[C@@H]2C)C1=C(C#N)C#N [Compound 56, {1-[2-((S)-2-methylpyrrolidin-1-yl)ethyl]-3-[3-((S) 2-methylpyrrolidin-1-yl)propyl]imidazolidin-2-ylidene}malononitrile]"
≥ 80%,≥ 70%,84 to 86 °C,"CC1CCCN1CCN1CCN(CCCN2CCCCC2)C1=C(C#N)C#N (stereo not drawn) [Compound 57, {1-[2-(2-Methylpyrrolidin-1-yl)ethyl]-3-(3-piperidinopropyl)imidazolidin-2-ylidene}malononitrile]"
≥ 80%,≥ 70%,,"N#CC(C#N)=C1N(CCCN2CCCCC2)CCN1CCCN1CCCCC1 [Compound 64, [1,3-Bis(3-piperidinopropyl)imidazolidin-2-ylidene]malononitrile]"
≥ 80%,≥ 70%,,"CC1CCCN1CCCN1CCN(CCCN2CCCCCC2)C1=C(C#N)C#N (stereo not drawn) [Compound 71, {1-[3-(Azepan-1-yl)propyl]-3-[3-(2-methylpyrrolidin-1-yl)propyl]imidazolidin-2-ylidene}malononitrile]"
≥ 80%,≥ 70%,,"CC1CCCN1CCCN1CCN(CCCN2CCCCC2)C1=C(C#N)C#N (stereo not drawn) [Compound 103, {1-[3-(2-Methylpyrrolidin-1-yl)propyl]-3-(3-piperidinopropyl)imidazolidin-2-ylidene}malononitrile]"
≥ 80%,≥ 70%,,"CC1CCCCN1CCCN1CCN(CCCN2CCCC2C)C1=C(C#N)C#N (stereo not drawn) [Compound 111, {1-[3-(2-Methylpiperidino)propyl]-3-[3-(2-methylpyrrolidin-1-yl)propyl]imidazolidin-2-ylidene}malononitrile]"
≥ 80%,≥ 70%,,"N#CC(C#N)=C1N(CCCN2CCCCC2)CCCN1CCCN1CCCCC1 [Compound 122, [1,3-Bis(3-piperidinopropyl)hexahydropyrimidin-2-ylidene]malononitrile]"
≥ 80%,≥ 70%,,"CC1CCCN1CCCN1C(=C(C#N)C#N)N(CCCN2CCCC2C)c2ccccc21 (stereo not drawn) [Compound 124, {1,3-Bis[3-(2-methylpyrrolidin-1-yl)propyl]benzimidazolidin-2-ylidene}malononitrile]"
≥ 80%,≥ 70%,,"N#CC(C#N)=C1N(CCCN2CCCCC2)CCN1C1CCN(Cc2ccccc2)CC1 [Compound 126, [1-(1-Benzylpiperidin-4-yl)-3-(3-piperidinopropyl)imidazolidin-2-ylidene]malononitrile]"
≥ 80%,≥ 70%,,"CN1CCC(N2CCN(CCCN3CCCCC3)C2=C(C#N)C#N)CC1 [Compound 129, [1-(1-Methylpiperidin-4-yl)-3-(3-piperidinopropyl)imidazolidin-2-ylidene]malononitrile]"
≥ 80%,≥ 70%,,"CC(C)N1CCC(N2CCN(CCCN3CCCCC3)C2=C(C#N)C#N)CC1 [Compound 130, [1-(1-Isopropylpiperidin-4-yl)-3-(3-piperidinopropyl)imidazolidin-2-ylidene]malononitrile]"
≥ 80%,≥ 70%,,"CC1CCCN1CC1CCN(C(=C(C#N)C#N)N(C)CCN2CCCCC2)CC1 (stereo not drawn) [Compound 149, {[N-methyl-N-(2-piperidinoethyl)amino][4-(2-methylpyrrolidin-1-ylmethyl)piperidino]methylene}malononitrile]"
≥ 80%,≥ 70%,,"CC(C)N1CCC(NC(=C(C#N)C#N)N2CCC(N3CCCCC3)CC2)CC1 [Compound 175, [(1-Isopropylpiperidin-4-ylamino)(4-piperidinopiperidino)methylene]malononitrile]"
≥ 80%,≥ 70%,,"C[C@H]1CCCN1CCN1CCN(CCN2CCC[C@@H]2C)C1=C(C#N)C#N [Compound 188, {1,3-Bis[2-((S)-2-methylpyrrolidin-1-yl)ethyl]imidazolidin-2-ylidene}malononitrile]"
≥ 80%,≥ 70%,,"CC(C)N1CCC(N2CCN(CCN3CCC[C@H]3C)C2=C(C#N)C#N)CC1 [Compound 213, {1-(1-Isopropylpiperidin-4-yl)-3-[2-((R)-2-methylpyrrolidin-1-yl)ethyl]imidazolidin-2-ylidene}malononitrile]"
≥ 80%,≥ 70%,,"N#CC(C#N)=C1N(CCCN2CCCCC2)CCN1C1CCN(CCF)CC1 [Compound 215, {1-[1-(2-Fluoroethyl)piperidin-4-yl]-3-(3-piperidinopropyl)imidazolidin-2-ylidene}malononitrile]"
≥ 80%,≥ 70%,,"CC(C)N1CCC(N2CCN(CCCN3CCOCC3)C2=C(C#N)C#N)CC1 [Compound 216, [1-(1-Isopropylpiperidin-4-yl)-3-(3-morpholinopropyl)imidazolidin-2-ylidene]malononitrile]"
≥ 80%,≥ 70%,,"C[C@H]1CCCN1CCCN1CCN(CCCN2CCC[C@@H]2C)C1=C(C#N)S(=O)(=O)c1ccccc1 [Compound 247, {1,3-Bis[3-((S)-2-methylpyrrolidin-1-yl)propyl]imidazolidin-2-ylidene}benzenesulfonylacetonitrile monohydrochloride]"
